The record followed here is patent US9534035B2, “Cell lines expressing ENaC and methods using them” (priority 2008, dated 2017).

Type in all cases: cell-based
The target of assay [1] is T1, ENaC (Homo sapiens, UniProt P37088+P51168+P51170, A314G).
T1 construct: expressed in transfected cells
T1 sequence (P37088 1-669): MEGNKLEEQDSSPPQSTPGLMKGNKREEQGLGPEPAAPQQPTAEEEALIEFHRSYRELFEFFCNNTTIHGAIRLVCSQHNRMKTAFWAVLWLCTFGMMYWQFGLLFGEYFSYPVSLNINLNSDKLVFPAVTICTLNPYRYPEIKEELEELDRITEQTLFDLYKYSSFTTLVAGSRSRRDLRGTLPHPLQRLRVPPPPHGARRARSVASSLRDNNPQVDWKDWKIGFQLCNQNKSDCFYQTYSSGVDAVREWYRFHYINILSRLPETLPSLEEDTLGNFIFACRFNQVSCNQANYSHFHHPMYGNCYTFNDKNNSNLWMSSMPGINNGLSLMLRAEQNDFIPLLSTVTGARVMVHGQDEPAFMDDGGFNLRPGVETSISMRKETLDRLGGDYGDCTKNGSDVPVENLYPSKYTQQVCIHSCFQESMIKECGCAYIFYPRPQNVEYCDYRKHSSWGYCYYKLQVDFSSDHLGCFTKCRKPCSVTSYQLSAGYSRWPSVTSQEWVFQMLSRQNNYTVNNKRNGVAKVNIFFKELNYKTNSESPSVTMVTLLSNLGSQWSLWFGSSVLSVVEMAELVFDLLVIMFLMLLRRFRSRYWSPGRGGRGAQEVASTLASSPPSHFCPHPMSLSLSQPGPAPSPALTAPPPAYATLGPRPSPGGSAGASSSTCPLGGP
T1 sequence (P51168 1-640 A314G): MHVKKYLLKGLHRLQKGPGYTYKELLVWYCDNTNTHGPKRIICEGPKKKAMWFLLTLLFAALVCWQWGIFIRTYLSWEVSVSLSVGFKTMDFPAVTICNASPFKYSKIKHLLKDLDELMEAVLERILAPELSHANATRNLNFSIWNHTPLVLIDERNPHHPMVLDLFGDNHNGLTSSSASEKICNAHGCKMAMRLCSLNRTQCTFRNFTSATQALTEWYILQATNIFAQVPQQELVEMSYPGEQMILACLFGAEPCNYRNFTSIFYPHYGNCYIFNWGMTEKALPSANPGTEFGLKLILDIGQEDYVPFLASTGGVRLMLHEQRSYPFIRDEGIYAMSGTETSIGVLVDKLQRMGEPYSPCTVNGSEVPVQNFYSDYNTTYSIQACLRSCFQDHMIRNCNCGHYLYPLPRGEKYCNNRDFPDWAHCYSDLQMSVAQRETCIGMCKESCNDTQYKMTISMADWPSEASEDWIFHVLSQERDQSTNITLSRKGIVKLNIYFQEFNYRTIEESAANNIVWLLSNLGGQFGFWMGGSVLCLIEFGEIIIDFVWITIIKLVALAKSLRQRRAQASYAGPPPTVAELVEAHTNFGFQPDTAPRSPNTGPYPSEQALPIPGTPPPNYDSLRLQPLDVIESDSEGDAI
T1 sequence (P51170 1-649): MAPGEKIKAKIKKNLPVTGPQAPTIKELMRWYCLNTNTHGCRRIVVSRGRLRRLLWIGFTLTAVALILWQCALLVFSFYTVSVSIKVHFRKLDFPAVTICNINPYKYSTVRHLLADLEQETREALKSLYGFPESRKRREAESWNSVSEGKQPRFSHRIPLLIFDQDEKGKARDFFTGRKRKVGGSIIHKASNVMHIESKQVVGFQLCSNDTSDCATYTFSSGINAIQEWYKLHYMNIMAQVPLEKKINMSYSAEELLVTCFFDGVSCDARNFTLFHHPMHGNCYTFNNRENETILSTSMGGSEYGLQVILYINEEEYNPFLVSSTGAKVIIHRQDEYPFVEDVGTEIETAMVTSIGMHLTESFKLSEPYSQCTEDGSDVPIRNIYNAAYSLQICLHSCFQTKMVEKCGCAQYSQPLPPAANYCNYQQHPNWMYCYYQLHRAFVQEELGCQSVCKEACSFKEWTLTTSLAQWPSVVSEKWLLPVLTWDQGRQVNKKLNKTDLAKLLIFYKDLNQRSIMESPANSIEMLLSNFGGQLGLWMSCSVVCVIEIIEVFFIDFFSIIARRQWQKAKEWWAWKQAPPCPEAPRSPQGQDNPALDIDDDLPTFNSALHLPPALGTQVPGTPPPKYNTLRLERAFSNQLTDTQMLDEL
Kind of assay: membrane potential assay with stable ENaC cell line (CHO). On the procedure: The influx of positively-charged sodium ions following the activation of ENaC results in a change in the membrane potential of the cell. To test the activity of ENaC cell lines, we used a membrane potential assay. Such assays are well known in the art. […] Rev. Biophys. […]
The assay plates were maintained in a 37° C. cell culture incubator under 5% CO2 for 19-21 hours. The media was then removed from the assay plates and 20 μl blue membrane potential dye (Molecular Devices Inc) was added and the cells were incubated for 1 hr at room temperature. Test compounds were solubilized in dimethylsulfoxide, diluted in a phosphate buffer and loaded into 384 well polypropylene micro-titer plates. The cell and compound plates were loaded into an FDSS instrument (Hamamatsu) which measures fluorescence (relative fluorescence units) from the plates over time. Fluorescence values were continuously collected from the beginning of the experiment and following addition of test compounds to report baseline values and any changes due to the addition of test compounds. Test compounds in assay buffer or assay buffer alone were then added to the cells and flluorescence values were collected for two minutes.

In assay [2] the test system is proteolytically cleaved ENaC isoforms. Briefly: dose response of inhibitors across trypsin concentrations, membrane potential FDSS protocol. Conditions: FIG. 9, trypsin 0 to 2.25 mg/ml, IC50 plotted against protease concentration. On the procedure:
We also tested the ability of novel ENaC inhibitors (identified in Example 4) to inhibit proteolytically cleaved ENaC. […] The cells were loaded with membrane potential dye concurrently with the trypsin. […] values were calculated and plotted as a function of protease concentration. […] The different isoforms of ENaC can be pursed in drug discovery to more effectively address the role of the different isoforms of ENaC or the effect or role of proteolysis in disease.

Assay [3] has as its system proteolyzed ENaC Form 24. Briefly: membrane potential assay, trypsin-treated ENaC cells. Conditions: FIG. 8 dose response.
Protocol: After a 1 hour incubation with a dye-protease solution at room temperature, the assay was run using the FDSS (Hamamatsu Corporation) as described above.
The experiment was performed using several treatment groups, each receiving a different concentration of trypsin (0 to 3 mg/ml). The cells were incubated with the trypsin for 1 hour at room temperature concurrently with membrane potential dye (standard protocol). […] We further characterized these proteolytically modified isoforms for their ability to conduct sodium.
The isoform specific assay described above was performed with MBP dye solution with trypsin concentrations as listed (Table 2).
The mark [4] stands for this setting: ENaC cell line maintained in 90 mM sodium media, read-out: EC50 (approx).
Where [5] appears, read: ENaC cell line maintained in 150 mM sodium media, read-out: EC50 (approx).
Where [6] appears, read: a cell line of the invention, general statement, read-out: EC50.

“Also recorded” adds a separate entry of the source. Read-outs that look alike come from different tables or passages of the source.

On to `[Cl-].[Li+]` [LiCl, lithium chloride], for which the results for the EC50 in assay [1] (setting [4]), in assay [1] (setting [5]) and in assay [1] (setting [6]) were around 33 mM, around 82 mM and around 35 mM, respectively.
As for `[Cl-].[Na+]` [NaCl, sodium chloride], the 50% effective concentration (EC50) (in general, the concentration needed to bring the measured effect to its halfway point) in assay [1] (setting [4]) is around 48 mM; in assay [1] (setting [5]), around 80 mM; in assay [1] (FIG. 4, read-out: EC50) it was 48 mM; in assay [1] (setting [6]) it was around 50 mM.
As for `N=C(N)NC(=O)c1nc(Cl)c(N)nc1N` [Amiloride, amiloride], in assay [1], the “block of the sodium response” value is given as “essentially all of the sodium response was blocked” and the “inhibition of uncleaved (non-proteolyzed) ENaC” value was “effectively inhibits; also recorded: almost completely inhibit”. Also, the “inhibition of proteolytically cleaved ENaC isoforms” value in assay [2] is “inhibit a unique subset of ENaC isoforms”. Further, the “inhibition of cleaved ENaC form 24” value in assay [3] is reported as “much less effective or not effective; also recorded: not effective to inhibit Form 24”.
